Measured values published in patent US20080009418A1, “Selective Inhibitors” (Alchemia LTD., priority 2004, published 2008).

Assays:
Settings in all cases: compound at 10 μM
Human Melanocortin (MC4) = biological target: T1, Human Melanocortin (MC4) (Homo sapiens, UniProt P32245); assay: Radioligand binding, human melanocortin MC4 membranes, FlashPlate, [125I]-NDP-αMSH
T1 construct: purchased Perkin Elmer Biosignal
In short: (§1)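 Cloned human receptor membranes were coated onto FlashPlate wells and incubated with radioligand and compound (added from a 0.5 mM DMSO daughter plate) for 1 hour at room temperature in the dark. Scintillation counting gave percent inhibition, with DMSO defining total and reference ligand defining non-specific binding.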

Human κ-Opioid (KOP) = biological target: T2, Human κ-Opioid (KOP) (Homo sapiens, UniProt P41145); assay: Radioligand binding, human κ-opioid (KOP) membranes, filtration, [3H]-Diprenorphine
T2 construct: purchased Perkin Elmer Biosignal
In short: (§2)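 Filtration binding on cloned human receptor membranes (1 Unit/well), [125I]-Substance P for NK1 and [3H]-Diprenorphine for KOP, 1 h at room temperature. Filters PEI-presoaked, washed with cold 50 mM Tris-HCl pH 7.4, counted by scintillation; percent inhibition calculated, reference ligand defining non-specific binding.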

Mouse urotensin (mUR2) = biological target: T3, Mouse urotensin (mUR2) (Mus musculus, UniProt Q8VIH9); assay: Radioligand binding, mouse urotensin mUR2 membranes, FlashPlate, [125I]-Urotensin II
T3 construct: purchased Perkin Elmer Biosignal
T3 sequence (Q8VIH9 1-385): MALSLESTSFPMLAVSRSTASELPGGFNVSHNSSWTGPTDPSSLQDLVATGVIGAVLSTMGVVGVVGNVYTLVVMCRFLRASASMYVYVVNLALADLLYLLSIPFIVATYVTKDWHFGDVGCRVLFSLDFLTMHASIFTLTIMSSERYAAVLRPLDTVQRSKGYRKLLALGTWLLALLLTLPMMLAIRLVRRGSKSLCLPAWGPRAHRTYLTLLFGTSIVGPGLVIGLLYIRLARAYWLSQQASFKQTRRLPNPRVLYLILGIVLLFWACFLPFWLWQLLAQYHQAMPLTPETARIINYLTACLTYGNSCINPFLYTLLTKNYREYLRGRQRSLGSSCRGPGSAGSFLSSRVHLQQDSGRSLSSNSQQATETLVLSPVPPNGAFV
In short: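 Cloned mouse urotensin (mUR2) receptor membranes from Perkin Elmer Biosignal were immobilized in FlashPlate microplates using a proprietary coating. Each well got 19.5 μl buffer, then 0.5 μl of DMSO, reference ligand, or compound. Adding 5 μl of [125I]-Urotensin II, diluted to 5× final concentration in binding buffer, started binding. Plates were sealed with TopSeal-A and incubated 1 hour at room temperature in the dark. Wells were counted for 30 seconds each on a TopCount after a 60-second delay, and percentage inhibition was calculated.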

Human melanocortin (MC5) = biological target: T4, Human melanocortin (MC5) (Homo sapiens, UniProt P33032); assay: Radioligand binding, human melanocortin MC5 membranes, FlashPlate, [125I]-NDP-αMSH
T4 construct: purchased Perkin Elmer Biosignal
In short: as §1

Human μ-opioid (MOP) = biological target: T5, Human μ-opioid (MOP) (Homo sapiens, UniProt P35372); assay: Radioligand binding, human μ-opioid (MOP) membranes, FlashPlate, [3H]-Naloxone
T5 construct: purchased Perkin Elmer Biosignal
In short: as §1

[1] = biological target: T6, Human melanin-concentrating hormone (MCH1) (Homo sapiens, UniProt Q99705); assay: Radioligand binding, human melanin-concentrating hormone MCH1 membranes, FlashPlate, [125I]-S36057
T6 construct: purchased Perkin Elmer Biosignal
In short: as §1

Human Melanocortin (MC3) = biological target: T7, Human Melanocortin (MC3) (Homo sapiens, UniProt P41968); assay: Radioligand binding, human melanocortin MC3 membranes, FlashPlate, [125I]-NDP-αMSH
T7 construct: purchased Perkin Elmer Biosignal
In short: as §1

Human opioid (ORL1) = biological target: T8, Human opioid (ORL1) (Homo sapiens, UniProt P41146); assay: Radioligand binding, human opioid ORL1 membranes, FlashPlate, [125I]-Nociceptin
T8 construct: purchased Perkin Elmer Biosignal
In short: as §1

Human δ-opioid (DOP) = biological target: T9, Human δ-opioid (DOP) (Homo sapiens, UniProt P41143); assay: Radioligand binding, human δ-opioid (DOP) membranes, FlashPlate, [3H]-Bremazocine
T9 construct: purchased Perkin Elmer Biosignal
In short: as §1

[2] = biological target: T10, Human neuropeptide Y (NPY-Y1) (Homo sapiens, UniProt P25929); assay: Radioligand binding, human neuropeptide Y NPY-Y1 membranes, FlashPlate, [125I]-PYY
T10 construct: purchased Perkin Elmer Biosignal
T10 sequence (P25929 1-384): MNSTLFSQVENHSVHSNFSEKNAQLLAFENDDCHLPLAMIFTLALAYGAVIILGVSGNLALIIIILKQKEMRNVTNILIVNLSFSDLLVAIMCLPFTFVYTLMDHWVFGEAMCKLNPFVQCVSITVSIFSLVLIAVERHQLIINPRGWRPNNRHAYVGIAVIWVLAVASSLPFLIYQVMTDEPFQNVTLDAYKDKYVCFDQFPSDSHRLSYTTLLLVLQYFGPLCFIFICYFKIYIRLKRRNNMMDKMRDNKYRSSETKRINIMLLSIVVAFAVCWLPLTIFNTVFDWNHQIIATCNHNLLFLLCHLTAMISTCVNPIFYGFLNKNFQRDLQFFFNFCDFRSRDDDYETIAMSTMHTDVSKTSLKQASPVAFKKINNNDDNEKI
In short: as §1

Human neurokinin (NK1) = biological target: T11, Human neurokinin (NK1) (Homo sapiens, UniProt P25103); assay: Radioligand binding, human neurokinin NK1 membranes, filtration, [125I]-Substance P
T11 construct: purchased Perkin Elmer Biosignal
In short: as §2

T1 sequence (P32245 whole entry): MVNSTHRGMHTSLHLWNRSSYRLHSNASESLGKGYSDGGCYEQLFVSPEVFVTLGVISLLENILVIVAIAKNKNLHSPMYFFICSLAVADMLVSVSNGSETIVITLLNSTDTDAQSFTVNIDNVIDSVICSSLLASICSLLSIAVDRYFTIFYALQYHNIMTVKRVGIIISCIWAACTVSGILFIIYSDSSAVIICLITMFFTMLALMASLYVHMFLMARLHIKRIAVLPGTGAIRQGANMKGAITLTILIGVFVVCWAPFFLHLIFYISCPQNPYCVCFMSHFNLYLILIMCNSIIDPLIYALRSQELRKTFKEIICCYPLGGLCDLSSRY
T7 sequence (P41968 whole entry): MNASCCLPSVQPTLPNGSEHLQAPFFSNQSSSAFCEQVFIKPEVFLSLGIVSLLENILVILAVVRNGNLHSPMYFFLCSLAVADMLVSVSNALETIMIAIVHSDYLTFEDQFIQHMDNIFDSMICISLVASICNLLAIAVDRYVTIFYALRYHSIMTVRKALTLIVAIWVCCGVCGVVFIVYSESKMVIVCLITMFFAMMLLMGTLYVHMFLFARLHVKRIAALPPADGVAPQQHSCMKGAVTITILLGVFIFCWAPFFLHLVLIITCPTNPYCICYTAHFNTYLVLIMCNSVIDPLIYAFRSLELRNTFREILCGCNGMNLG
T5 sequence (P35372 whole entry): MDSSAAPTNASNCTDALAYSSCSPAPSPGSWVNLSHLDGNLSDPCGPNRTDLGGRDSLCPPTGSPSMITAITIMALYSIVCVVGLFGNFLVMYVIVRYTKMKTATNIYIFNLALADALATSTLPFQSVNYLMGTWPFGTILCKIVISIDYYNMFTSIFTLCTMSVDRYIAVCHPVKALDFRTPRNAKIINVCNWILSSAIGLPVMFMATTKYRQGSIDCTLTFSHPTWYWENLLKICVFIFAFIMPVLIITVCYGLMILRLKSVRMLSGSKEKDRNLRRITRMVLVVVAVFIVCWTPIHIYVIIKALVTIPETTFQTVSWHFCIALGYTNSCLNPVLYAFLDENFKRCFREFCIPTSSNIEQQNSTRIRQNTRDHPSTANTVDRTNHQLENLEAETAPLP
T6 sequence (Q99705 whole entry): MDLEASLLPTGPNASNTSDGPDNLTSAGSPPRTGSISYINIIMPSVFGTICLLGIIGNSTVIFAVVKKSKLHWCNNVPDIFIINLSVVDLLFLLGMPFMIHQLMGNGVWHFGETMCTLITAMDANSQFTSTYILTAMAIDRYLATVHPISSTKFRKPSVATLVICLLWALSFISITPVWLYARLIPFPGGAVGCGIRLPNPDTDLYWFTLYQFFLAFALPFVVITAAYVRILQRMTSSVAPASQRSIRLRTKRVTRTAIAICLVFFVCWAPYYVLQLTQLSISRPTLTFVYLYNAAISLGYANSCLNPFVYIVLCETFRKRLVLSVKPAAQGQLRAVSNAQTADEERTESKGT
T4 sequence (P33032 whole entry): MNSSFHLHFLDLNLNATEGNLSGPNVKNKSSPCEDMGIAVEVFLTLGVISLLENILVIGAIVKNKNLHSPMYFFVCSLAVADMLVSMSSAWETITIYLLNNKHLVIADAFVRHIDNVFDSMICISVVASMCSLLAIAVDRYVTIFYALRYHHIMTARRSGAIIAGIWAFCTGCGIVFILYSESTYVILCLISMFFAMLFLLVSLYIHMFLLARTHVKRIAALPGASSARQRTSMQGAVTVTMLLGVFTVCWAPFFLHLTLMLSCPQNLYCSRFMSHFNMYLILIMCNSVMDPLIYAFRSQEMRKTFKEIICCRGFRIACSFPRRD
T2 sequence (P41145 whole entry): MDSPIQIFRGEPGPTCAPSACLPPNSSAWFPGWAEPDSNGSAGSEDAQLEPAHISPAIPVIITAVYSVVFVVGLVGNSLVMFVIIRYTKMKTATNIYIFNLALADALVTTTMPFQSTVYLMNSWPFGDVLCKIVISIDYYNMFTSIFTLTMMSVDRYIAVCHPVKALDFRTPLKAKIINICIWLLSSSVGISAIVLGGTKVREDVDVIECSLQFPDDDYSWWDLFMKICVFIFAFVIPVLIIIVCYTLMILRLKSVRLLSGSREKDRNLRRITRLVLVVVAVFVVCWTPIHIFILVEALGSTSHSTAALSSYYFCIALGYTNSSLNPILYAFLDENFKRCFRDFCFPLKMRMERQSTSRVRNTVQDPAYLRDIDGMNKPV
T8 sequence (P41146 whole entry): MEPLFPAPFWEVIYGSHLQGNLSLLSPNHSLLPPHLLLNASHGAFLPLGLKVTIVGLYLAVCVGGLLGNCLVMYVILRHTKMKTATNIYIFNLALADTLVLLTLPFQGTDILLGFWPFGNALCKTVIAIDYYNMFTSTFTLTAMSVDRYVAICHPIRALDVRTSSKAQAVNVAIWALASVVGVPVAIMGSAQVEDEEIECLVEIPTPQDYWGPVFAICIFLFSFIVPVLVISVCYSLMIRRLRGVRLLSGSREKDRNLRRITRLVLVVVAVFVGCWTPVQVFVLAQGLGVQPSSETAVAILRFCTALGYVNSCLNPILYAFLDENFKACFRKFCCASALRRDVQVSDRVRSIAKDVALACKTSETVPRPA
T9 sequence (P41143 whole entry): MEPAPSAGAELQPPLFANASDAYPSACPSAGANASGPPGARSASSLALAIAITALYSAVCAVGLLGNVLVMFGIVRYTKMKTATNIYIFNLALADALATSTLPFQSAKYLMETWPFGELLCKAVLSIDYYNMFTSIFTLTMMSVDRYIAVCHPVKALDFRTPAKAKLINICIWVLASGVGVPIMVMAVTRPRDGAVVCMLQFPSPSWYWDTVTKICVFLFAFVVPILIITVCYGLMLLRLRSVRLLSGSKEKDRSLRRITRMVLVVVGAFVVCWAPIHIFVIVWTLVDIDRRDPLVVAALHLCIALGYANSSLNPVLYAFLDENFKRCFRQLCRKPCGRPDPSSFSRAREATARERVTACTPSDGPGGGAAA
T11 sequence (P25103 whole entry): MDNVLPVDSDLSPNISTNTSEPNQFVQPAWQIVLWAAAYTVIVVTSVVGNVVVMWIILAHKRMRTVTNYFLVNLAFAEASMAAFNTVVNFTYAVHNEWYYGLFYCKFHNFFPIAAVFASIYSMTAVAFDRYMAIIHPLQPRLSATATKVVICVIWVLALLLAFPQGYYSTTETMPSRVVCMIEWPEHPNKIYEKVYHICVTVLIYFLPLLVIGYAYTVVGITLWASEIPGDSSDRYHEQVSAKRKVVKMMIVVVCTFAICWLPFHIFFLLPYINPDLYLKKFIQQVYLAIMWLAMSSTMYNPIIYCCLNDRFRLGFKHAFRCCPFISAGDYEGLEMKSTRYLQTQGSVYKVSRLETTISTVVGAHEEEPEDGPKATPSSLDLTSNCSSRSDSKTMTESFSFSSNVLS

CSC1O[C@H](COCc2ccc(-c3ccccc3)cc2)[C@@H](O)[C@@H](OCc2ccc(Cl)cc2)[C@H]1NC(=O)CCCNC(=N)N (stereo partly shown) [compound 279]
A4: inhibition of radioligand binding (Human Melanocortin (MC4); [125I]-NDP-αMSH, FlashPlate): − (“−” indicates less than 50% inhibition at 10 μM)
A2: inhibition of radioligand binding (Human κ-Opioid (KOP); [3H]-Diprenorphine, filtration): − (“−” indicates less than 50% inhibition at 10 μM)
A11: inhibition of radioligand binding (Mouse urotensin (mUR2); [125I]-Urotensin II, FlashPlate): − (“−” indicates less than 50% inhibition at 10 μM)
A5: inhibition of radioligand binding (Human melanocortin (MC5); [125I]-NDP-αMSH, FlashPlate): + (“+” indicates greater than 50% inhibition at 10 μM)
A7: inhibition of radioligand binding (Human μ-opioid (MOP); [3H]-Naloxone, FlashPlate): − (“−” indicates less than 50% inhibition at 10 μM)
A6: inhibition of radioligand binding ([1]; [125I]-S36057, FlashPlate): − (“−” indicates less than 50% inhibition at 10 μM)
A3: inhibition of radioligand binding (Human Melanocortin (MC3); [125I]-NDP-αMSH, FlashPlate): − (“−” indicates less than 50% inhibition at 10 μM)
A10: inhibition of radioligand binding (Human opioid (ORL1); [125I]-Nociceptin, FlashPlate): − (“−” indicates less than 50% inhibition at 10 μM)
A1: inhibition of radioligand binding (Human δ-opioid (DOP); [3H]-Bremazocine, FlashPlate): − (“−” indicates less than 50% inhibition at 10 μM)
A9: inhibition of radioligand binding ([2]; [125I]-PYY, FlashPlate): − (“−” indicates less than 50% inhibition at 10 μM)
A8: inhibition of radioligand binding (Human neurokinin (NK1); [125I]-Substance P, filtration): + (“+” indicates greater than 50% inhibition at 10 μM)

CO[C@H]1[C@H](O)[C@@H](COCc2ccc(-c3ccccc3)cc2)OC(OCCc2ccccc2)[C@@H]1NC(=O)CCNC(=N)N (stereo partly shown) [compound 110]
A4 radioligand binding, percentage inhibition (Human Melanocortin (MC4); [125I]-NDP-αMSH): + (“+” indicates greater than 50% inhibition at 10 μM)
A2 radioligand binding, percentage inhibition (Human κ-Opioid (KOP); [3H]-Diprenorphine): − (“−” indicates less than 50% inhibition at 10 μM)
A11 radioligand binding, percentage inhibition (Mouse urotensin (mUR2); [125I]-Urotensin II): − (“−” indicates less than 50% inhibition at 10 μM)
A5 radioligand binding, percentage inhibition (Human melanocortin (MC5); [125I]-NDP-αMSH): + (“+” indicates greater than 50% inhibition at 10 μM)
A7 radioligand binding, percentage inhibition (Human μ-opioid (MOP); [3H]-Naloxone): − (“−” indicates less than 50% inhibition at 10 μM)
A6 radioligand binding, percentage inhibition ([1]; [125I]-S36057): − (“−” indicates less than 50% inhibition at 10 μM)
A3 radioligand binding, percentage inhibition (Human Melanocortin (MC3); [125I]-NDP-αMSH): − (“−” indicates less than 50% inhibition at 10 μM)
A10 radioligand binding, percentage inhibition (Human opioid (ORL1); [125I]-Nociceptin): − (“−” indicates less than 50% inhibition at 10 μM)
A1 radioligand binding, percentage inhibition (Human δ-opioid (DOP); [3H]-Bremazocine): − (“−” indicates less than 50% inhibition at 10 μM)
A9 radioligand binding, percentage inhibition ([2]; [125I]-PYY): − (“−” indicates less than 50% inhibition at 10 μM)
A8 radioligand binding, percentage inhibition (Human neurokinin (NK1); [125I]-Substance P): − (“−” indicates less than 50% inhibition at 10 μM)

COC[C@H]1OC(OCc2ccc(Cl)cc2)[C@H](NC(=O)CCCN)[C@@H](OCc2ccccc2)[C@@H]1O (stereo partly shown) [compound 35]
A4 radioligand binding inhibition (Human Melanocortin (MC4); human melanocortin MC4 membranes): − (“−” indicates less than 50% inhibition at 10 μM)
A2 radioligand binding inhibition (Human κ-Opioid (KOP); human κ-opioid (KOP) membranes): − (“−” indicates less than 50% inhibition at 10 μM)
A11 radioligand binding inhibition (Mouse urotensin (mUR2); mouse urotensin mUR2 membranes): − (“−” indicates less than 50% inhibition at 10 μM)
A5 radioligand binding inhibition (Human melanocortin (MC5); human melanocortin MC5 membranes): − (“−” indicates less than 50% inhibition at 10 μM)
A7 radioligand binding inhibition (Human μ-opioid (MOP); human μ-opioid (MOP) membranes): − (“−” indicates less than 50% inhibition at 10 μM)
A6 radioligand binding inhibition ([1]; human MCH1 membranes): − (“−” indicates less than 50% inhibition at 10 μM)
A3 radioligand binding inhibition (Human Melanocortin (MC3); human melanocortin MC3 membranes): − (“−” indicates less than 50% inhibition at 10 μM)
A10 radioligand binding inhibition (Human opioid (ORL1); human ORL1 membranes): − (“−” indicates less than 50% inhibition at 10 μM)
A1 radioligand binding inhibition (Human δ-opioid (DOP); human δ-opioid (DOP) membranes): − (“−” indicates less than 50% inhibition at 10 μM)
A9 radioligand binding inhibition ([2]; human NPY-Y1 membranes): − (“−” indicates less than 50% inhibition at 10 μM)
A8 radioligand binding inhibition (Human neurokinin (NK1); human neurokinin NK1 membranes): + (“+” indicates greater than 50% inhibition at 10 μM)

COCC1OC(OCc2ccc3ccccc3c2)C(NC(=O)CCN)C(OCc2ccc3ccccc3c2)C1O (stereo not shown) [compound 545]
A4: inhibition of radioligand binding, human melanocortin (MC4) (Human Melanocortin (MC4); [125I]-NDP-αMSH): − (“−” indicates less than 50% inhibition at 10 μM)
A2: inhibition of radioligand binding, human κ-opioid (KOP) (Human κ-Opioid (KOP); [3H]-Diprenorphine): − (“−” indicates less than 50% inhibition at 10 μM)
A11: inhibition of radioligand binding, mouse urotensin (mUR2) (Mouse urotensin (mUR2); [125I]-Urotensin II): − (“−” indicates less than 50% inhibition at 10 μM)
A5: inhibition of radioligand binding, human melanocortin (MC5) (Human melanocortin (MC5); [125I]-NDP-αMSH, 10 µM): − (“−” indicates less than 50% inhibition at 10 μM)
A7: inhibition of radioligand binding, human μ-opioid (MOP) (Human μ-opioid (MOP); [3H]-Naloxone): − (“−” indicates less than 50% inhibition at 10 μM)
A6: inhibition of radioligand binding, human melanin-concentrating hormone (MCH1) ([1]; [125I]-S36057): − (“−” indicates less than 50% inhibition at 10 μM)
A3: inhibition of radioligand binding, human melanocortin (MC3) (Human Melanocortin (MC3); [125I]-NDP-αMSH): − (“−” indicates less than 50% inhibition at 10 μM)
A10: inhibition of radioligand binding, human opioid (ORL1) (Human opioid (ORL1); [125I]-Nociceptin): − (“−” indicates less than 50% inhibition at 10 μM)
A1: inhibition of radioligand binding, human δ-opioid (DOP) (Human δ-opioid (DOP); [3H]-Bremazocine): − (“−” indicates less than 50% inhibition at 10 μM)
A9: inhibition of radioligand binding, human neuropeptide Y (NPY-Y1) ([2]; [125I]-PYY): − (“−” indicates less than 50% inhibition at 10 μM)
A8: inhibition of radioligand binding, human neurokinin (NK1) (Human neurokinin (NK1); [125I]-Substance P, 10 µM): + (“+” indicates greater than 50% inhibition at 10 μM)

N=C(N)NCCC(=O)N[C@H]1C(OCc2ccc(Cl)cc2)O[C@H](COCc2ccccc2)[C@@H](O)[C@@H]1OCc1ccc(-c2ccccc2)cc1 (stereo partly shown) [compound 535]
A4: inhibition of radioligand binding, human melanocortin (MC4) (Human Melanocortin (MC4); [125I]-NDP-αMSH): + (“+” indicates greater than 50% inhibition at 10 μM)
A2: inhibition of radioligand binding, human κ-opioid (KOP) (Human κ-Opioid (KOP); [3H]-Diprenorphine): + (“+” indicates greater than 50% inhibition at 10 μM)
A11: inhibition of radioligand binding, mouse urotensin (mUR2) (Mouse urotensin (mUR2); [125I]-Urotensin II): − (“−” indicates less than 50% inhibition at 10 μM)
A5: inhibition of radioligand binding, human melanocortin (MC5) (Human melanocortin (MC5); [125I]-NDP-αMSH): + (“+” indicates greater than 50% inhibition at 10 μM)
A7: inhibition of radioligand binding, human μ-opioid (MOP) (Human μ-opioid (MOP); [3H]-Naloxone, 10 µM): + (“+” indicates greater than 50% inhibition at 10 μM)
A6: inhibition of radioligand binding, human melanin-concentrating hormone (MCH1) ([1]; [125I]-S36057): + (“+” indicates greater than 50% inhibition at 10 μM)
A3: inhibition of radioligand binding, human melanocortin (MC3) (Human Melanocortin (MC3); [125I]-NDP-αMSH): + (“+” indicates greater than 50% inhibition at 10 μM)
A10: inhibition of radioligand binding, human opioid (ORL1) (Human opioid (ORL1); [125I]-Nociceptin): − (“−” indicates less than 50% inhibition at 10 μM)
A1: inhibition of radioligand binding, human δ-opioid (DOP) (Human δ-opioid (DOP); [3H]-Bremazocine, 10 µM): + (“+” indicates greater than 50% inhibition at 10 μM)
A9: inhibition of radioligand binding, human neuropeptide Y (NPY-Y1) ([2]; [125I]-PYY): − (“−” indicates less than 50% inhibition at 10 μM)
A8: inhibition of radioligand binding, human neurokinin (NK1) (Human neurokinin (NK1); [125I]-Substance P): + (“+” indicates greater than 50% inhibition at 10 μM)
